Activity calls are given as the source filed them. The calls are words filed in the database; no cut-off is given here.
Key:
[1] = system: Mus musculus; assay: Percentage inhibition against LPS-induced TNF-alpha production in mice at a 10 mg/kg dose; assay type: functional
[2] = biological target: Mitogen-activated protein kinase 14 (Mus musculus, UniProt P47811); assay: Inhibition of murine p38 alpha kinase
[3] = biological target: MAP kinase p38 (Homo sapiens, UniProt O15264+Q15759+Q16539+P53778); assay: Inhibition of LPS-induced p38-related TNF-alpha production in human peripheral blood mononuclear cells; assay type: functional
[4] = system: Mus musculus; assay: Percentage inhibition against LPS-induced TNF-alpha production in mice at a 2 mg/kg dose; assay type: functional
[5] = system: Mus musculus; assay: Percentage inhibition against LPS-induced TNF-alpha production in mice at a 10 mg/kg dose; Not active; assay type: functional, organism-based; parameters: dose 10 mg/kg

Mitogen-activated protein kinase 14, sequence (P47811 whole entry): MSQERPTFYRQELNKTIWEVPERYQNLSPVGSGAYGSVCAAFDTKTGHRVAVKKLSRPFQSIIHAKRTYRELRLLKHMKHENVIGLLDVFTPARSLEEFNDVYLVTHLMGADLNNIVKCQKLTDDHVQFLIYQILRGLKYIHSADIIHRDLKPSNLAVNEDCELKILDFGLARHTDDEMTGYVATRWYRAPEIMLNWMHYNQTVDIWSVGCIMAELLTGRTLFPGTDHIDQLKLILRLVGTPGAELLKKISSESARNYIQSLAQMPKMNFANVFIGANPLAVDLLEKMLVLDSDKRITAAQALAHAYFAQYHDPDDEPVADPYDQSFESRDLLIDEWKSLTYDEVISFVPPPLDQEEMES

Nc1ccn2c(-c3ccncc3)c(-c3ccc(F)cc3)nc2n1
inhibition in vivo at 10 mg/kg [1]: 97% | IC50 [2]: 570 nM

CSc1nccc(-c2c(-c3ccccc3)nc3nc(N)ccn23)n1
inhibition in vivo at 10 mg/kg [1]: 23% | IC50 [2]: 457 nM | IC50 [3]: 28 nM

COC[C@H](C)Nc1cc(-c2c(-c3ccccc3)nc3nc(N)ccn23)ccn1
inhibition in vivo at 10 mg/kg [1]: 93% | IC50 [2]: 2 nM

Nc1ccn2c(-c3ccnc(NCc4ccccc4)c3)c(-c3ccc(F)cc3)nc2n1
inhibition in vivo at 10 mg/kg [1]: 42% | IC50 [2]: 6 nM | IC50 [3]: 6 nM

COc1cc(N)[nH]c2nc(-c3ccc(F)cc3)c(-c3ccncc3)c1-2
inhibition in vivo at 10 mg/kg [1]: 75%

COc1nccc(-c2c(-c3ccccc3)nc3nc(N)ccn23)n1
inhibition in vivo at 10 mg/kg [1]: 87% | IC50 [2]: 210 nM | IC50 [3]: 90 nM

C[C@H](Nc1cc(-c2c(-c3ccccc3)nc3nc(N)ccn23)ccn1)c1ccccc1
inhibition in vivo at 2 mg/kg [4]: 34% | inhibition in vivo at 10 mg/kg [1]: 96% | IC50 [2]: 1 nM | IC50 [3]: 2 nM

Fc1ccc(-c2[nH]c3ccc4[nH]c(Cc5ccccc5)nc4c3c2-c2ccncc2)cc1
inhibition in vivo at 10 mg/kg [1]: 70% | IC50 [2]: 22 nM

Nc1ccn2c(-c3ccnc(N[C@H]4CCCc5ccccc54)c3)c(-c3ccccc3)nc2n1
inhibition [5]: inactive | IC50 [2]: 8 nM

C[C@@H](Nc1nccc(-c2c(-c3ccccc3)nc3nc(N)ccn23)n1)c1ccccc1
inhibition in vivo at 10 mg/kg [1]: 66% | IC50 [2]: 37 nM

C[C@H](Nc1nccc(-c2c(-c3ccccc3)nc3nc(N)ccn23)n1)c1ccccc1
inhibition in vivo at 2 mg/kg [4]: 83% | inhibition in vivo at 10 mg/kg [1]: 100% | IC50 [2]: 8 nM

Nc1ccn2c(-c3ccncn3)c(-c3ccccc3)nc2n1
inhibition in vivo at 10 mg/kg [1]: 73% | IC50 [2]: 990 nM | IC50 [3]: 304 nM
